# From the supplement of paper PMC10307832
# Tests used:
# Experiment in all cases: relative viability (nuclei count vs DMSO), 5 days (fraction); higher = more cells survive
# HCC-827 = tested on: HCC-827
# How it was run: (§1)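 A single step with final 0.05% Triton X-100, 1% formaldehyde and 1 ug/ml Hoechst fixed the cells and stained nuclei 5 days after treatment. Lung cancer cell lines in 1536-well plates had been treated by pin tool the day after seeding with one drug alone or a fixed anchor-drug dose plus five library-drug doses (not always all listed) in √10 steps, and nuclei were counted on 4× images. Relative viability is the ratio of nuclei in treated wells to nuclei in vehicle wells, taken as the median of duplicate plates.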
# EKVX = tested on: EKVX
# How it was run: as §1
# NCI-H358 = tested on: NCI-H358
# How it was run: as §1
# NCI-H1651 = tested on: NCI-H1651
# How it was run: as §1
# NCI-H1975 = tested on: NCI-H1975
# How it was run: as §1
# HCC-15 = tested on: HCC-15
# How it was run: as §1
# NCI-H2087 = tested on: NCI-H2087
# How it was run: as §1
# NCI-H727 = tested on: NCI-H727
# How it was run: as §1
# LCLC-103H = tested on: LCLC-103H
# How it was run: as §1
# HCC-44 = tested on: HCC-44
# How it was run: as §1
# EPLC-272H = tested on: EPLC-272H
# How it was run: as §1
# NCI-H1792 = tested on: NCI-H1792
# How it was run: as §1
# NCI-H1437 = tested on: NCI-H1437
# How it was run: as §1
# 201T = tested on: 201T
# How it was run: as §1
# NCI-H647 = tested on: NCI-H647
# How it was run: as §1
# H3255 = tested on: H3255
# How it was run: as §1
# ABC-1 = tested on: ABC-1
# How it was run: as §1
compound,measurement,setting,value
O=C(O)CCCCC(CCSCc1ccccc1)SCc1ccccc1 (stereo not drawn) [CPI-613] + NC(=O)Nc1cc(-c2cccc(F)c2)sc1C(=O)N[C@H]1CCCNC1 [AZD7762] (partner 0.2 µM),relative viability,HCC-827; first compound 5 µM,0.217
same,relative viability,HCC-827; first compound 15.81 µM,0.181
same,relative viability,HCC-827; first compound 50 µM,0.201
same,relative viability,HCC-827; first compound 158.11 µM,0.179
same,relative viability,HCC-827; first compound 500 µM,0.127
same,relative viability,EKVX; first compound 5 µM,0.731
same,relative viability,EKVX; first compound 15.81 µM,0.646
same,relative viability,EKVX; first compound 50 µM,0.505
same,relative viability,EKVX; first compound 500 µM,0.62
same,relative viability,NCI-H358; first compound 5 µM,0.569
same,relative viability,NCI-H358; first compound 15.81 µM,0.451
same,relative viability,NCI-H358; first compound 50 µM,0.474
same,relative viability,NCI-H358; first compound 158.11 µM,0.438
same,relative viability,NCI-H358; first compound 500 µM,0.56
same,relative viability,NCI-H1651; first compound 5 µM,0.484
same,relative viability,NCI-H1651; first compound 15.81 µM,0.421
same,relative viability,NCI-H1651; first compound 50 µM,0.421
same,relative viability,NCI-H1651; first compound 158.11 µM,0.317
same,relative viability,NCI-H1651; first compound 500 µM,0.45
same,relative viability,NCI-H1975; first compound 5 µM,0.734
same,relative viability,NCI-H1975; first compound 15.81 µM,0.682
same,relative viability,NCI-H1975; first compound 50 µM,0.581
same,relative viability,NCI-H1975; first compound 158.11 µM,0.666
same,relative viability,NCI-H1975; first compound 500 µM,0.677
same,relative viability,HCC-15; first compound 5 µM,1.21
same,relative viability,HCC-15; first compound 15.81 µM,1.04
same,relative viability,HCC-15; first compound 50 µM,1.14
same,relative viability,HCC-15; first compound 158.11 µM,0.819
same,relative viability,HCC-15; first compound 500 µM,0.476
same,relative viability,NCI-H2087; first compound 5 µM,1.4
same,relative viability,NCI-H2087; first compound 15.81 µM,0.87
same,relative viability,NCI-H2087; first compound 50 µM,1.16
same,relative viability,NCI-H2087; first compound 158.11 µM,0.446
same,relative viability,NCI-H2087; first compound 500 µM,0.01
same,relative viability,NCI-H727; first compound 5 µM,0.617
same,relative viability,NCI-H727; first compound 15.81 µM,0.547
same,relative viability,NCI-H727; first compound 50 µM,0.669
same,relative viability,NCI-H727; first compound 158.11 µM,0.555
same,relative viability,NCI-H727; first compound 500 µM,0.561
same,relative viability,LCLC-103H; first compound 5 µM,0.738
same,relative viability,LCLC-103H; first compound 15.81 µM,0.764
same,relative viability,LCLC-103H; first compound 50 µM,0.755
same,relative viability,LCLC-103H; first compound 158.11 µM,0.65
same,relative viability,LCLC-103H; first compound 500 µM,0.501
same,relative viability,HCC-44; first compound 5 µM,1.03
same,relative viability,HCC-44; first compound 15.81 µM,0.966
same,relative viability,HCC-44; first compound 50 µM,1.01
same,relative viability,HCC-44; first compound 158.11 µM,0.967
same,relative viability,HCC-44; first compound 500 µM,0.66
same,relative viability,EPLC-272H; first compound 5 µM,0.209
same,relative viability,EPLC-272H; first compound 15.81 µM,0.302
same,relative viability,EPLC-272H; first compound 50 µM,0.189
same,relative viability,EPLC-272H; first compound 158.11 µM,0.143
same,relative viability,EPLC-272H; first compound 500 µM,0.3
same,relative viability,NCI-H1792; first compound 5 µM,0.691
same,relative viability,NCI-H1792; first compound 15.81 µM,0.616
same,relative viability,NCI-H1792; first compound 50 µM,0.57
same,relative viability,NCI-H1792; first compound 158.11 µM,0.135
same,relative viability,NCI-H1792; first compound 500 µM,0.047
same,relative viability,NCI-H1437; first compound 5 µM,1.11
same,relative viability,NCI-H1437; first compound 15.81 µM,1.13
same,relative viability,NCI-H1437; first compound 50 µM,1.08
same,relative viability,NCI-H1437; first compound 158.11 µM,0.604
same,relative viability,NCI-H1437; first compound 500 µM,0.855
same,relative viability,201T; first compound 5 µM,0.581
same,relative viability,201T; first compound 15.81 µM,0.62
same,relative viability,201T; first compound 50 µM,0.66
same,relative viability,201T; first compound 158.11 µM,0.318
same,relative viability,201T; first compound 500 µM,0.564
same,relative viability,NCI-H647; first compound 5 µM,0.502
same,relative viability,NCI-H647; first compound 15.81 µM,0.32
same,relative viability,NCI-H647; first compound 50 µM,0.406
same,relative viability,NCI-H647; first compound 158.11 µM,0.282
same,relative viability,NCI-H647; first compound 500 µM,0.343
same,relative viability,H3255; first compound 5 µM,0.816
same,relative viability,H3255; first compound 15.81 µM,0.847
same,relative viability,H3255; first compound 50 µM,0.833
same,relative viability,H3255; first compound 158.11 µM,0.733
same,relative viability,H3255; first compound 500 µM,0.853
same,relative viability,ABC-1; first compound 5 µM,1.18
same,relative viability,ABC-1; first compound 15.81 µM,0.696
same,relative viability,ABC-1; first compound 158.11 µM,0.471
same,relative viability,ABC-1; first compound 500 µM,0.71
